Experimental data as given in the NIST ThermoML archive (doi:10.1016/j.jct.2006.02.001).
Several values for one entry are separate records, joined by “and”; a condition that tells them apart may be missing. Equal entries are not always repeated. ± gives the expanded uncertainty stated by the source.

Columns and labels:
[1] = refractive index (Na D-line) (dimensionless); conditions: 101.33 kPa, Liquid
[2] = 101 kPa, Liquid
[3] = refractive index (Na D-line) (dimensionless); xn = mol fraction of the nth substance listed; conditions: 101 kPa, Liquid
[4] = xn = mol fraction of the nth substance listed; conditions: 101 kPa, Liquid

Cc1ccccc1C [1,2-dimethylbenzene]
Conditions	mass density, 288.15 K [kg/m3]	mass density, 293.15 K [kg/m3]	mass density, 298.15 K [kg/m3]	mass density, 303.15 K [kg/m3]	refractive index, 288.15 K	refractive index, 293.15 K	refractive index, 298.15 K	refractive index, 303.15 K
[1]	–	–	–	–	1.5072 ± 0.0096	1.5047 ± 0.0096	1.5018 ± 0.0096	1.5 ± 0.0096
[2]	883.29 ± 0.91	879.08 ± 0.92	875.53 ± 0.94	870.73 ± 0.95	–	–	–	–

Cc1ccccc1 [toluene]
Conditions	mass density, 288.15 K [kg/m3]	mass density, 293.15 K [kg/m3]	mass density, 298.15 K [kg/m3]	mass density, 303.15 K [kg/m3]	refractive index, 288.15 K	refractive index, 293.15 K	refractive index, 298.15 K	refractive index, 303.15 K
[1]	–	–	–	–	1.4996 ± 0.0096	1.497 ± 0.0096	1.4944 ± 0.0096	1.4918 ± 0.0096
[2]	871.41 ± 0.84	866.87 ± 0.86	862.2 ± 0.88	857.46 ± 0.9	–	–	–	–

COc1ccccc1 [anisole]
Conditions	mass density, 288.15 K [kg/m3]	mass density, 293.15 K [kg/m3]	mass density, 298.15 K [kg/m3]	mass density, 303.15 K [kg/m3]	refractive index, 288.15 K	refractive index, 293.15 K	refractive index, 298.15 K	refractive index, 303.15 K
[1]	–	–	–	–	1.5256 ± 0.0097	1.5172 ± 0.0097 and 1.5169 ± 0.0097	1.5141 ± 0.0096	1.5117 ± 0.0096
[2]	998.44 ± 1.4	993.65 ± 1.5	989.15 ± 1.6	984.37 ± 1.6	–	–	–	–

COc1ccccc1 [anisole] + Cc1cccc(C)c1
Conditions	mass density, 288.15 K [kg/m3]	mass density, 293.15 K [kg/m3]	mass density, 298.15 K [kg/m3]	mass density, 303.15 K [kg/m3]	refractive index, 288.15 K	refractive index, 293.15 K	refractive index, 298.15 K	refractive index, 303.15 K
[3], x1 = 0.1006	–	–	–	–	1.5021 ± 0.0096	1.4992 ± 0.0096	1.4963 ± 0.0096	1.4944 ± 0.0096
[3], x1 = 0.2463	–	–	–	–	1.5055 ± 0.0096	1.5018 ± 0.0096	1.499 ± 0.0096	1.497 ± 0.0096
[3], x1 = 0.3753	–	–	–	–	1.5086 ± 0.0096	1.5042 ± 0.0096	1.5013 ± 0.0096	1.4993 ± 0.0096
[3], x1 = 0.496	–	–	–	–	1.5117 ± 0.0097	1.5065 ± 0.0096	1.5037 ± 0.0096	1.5016 ± 0.0096
[3], x1 = 0.6398	–	–	–	–	1.5155 ± 0.0097	1.5093 ± 0.0096	1.5065 ± 0.0096	1.5044 ± 0.0096
[3], x1 = 0.7468	–	–	–	–	1.5184 ± 0.0097	1.5115 ± 0.0096	1.5088 ± 0.0096	1.5066 ± 0.0096
[3], x1 = 0.8284	–	–	–	–	1.5206 ± 0.0097	1.5132 ± 0.0097	1.5104 ± 0.0096	1.5082 ± 0.0096
[3], x1 = 0.9034	–	–	–	–	1.5228 ± 0.0097	1.5149 ± 0.0097	1.5121 ± 0.0096	1.5098 ± 0.0096
[3], x1 = 0.9613	–	–	–	–	1.5244 ± 0.0097	1.5161 ± 0.0097	1.5133 ± 0.0096	1.511 ± 0.0096
[3], x1 = 1	–	–	–	–	1.5256 ± 0.0098	1.5169 ± 0.0097	1.5141 ± 0.0096	1.5117 ± 0.0096
[4], x1 = 0.1006	880.54 ± 0.85	876.26 ± 0.87	872.02 ± 0.88	867.67 ± 0.9	–	–	–	–
[4], x1 = 0.2463	898.41 ± 0.79	894.1 ± 0.8	889.76 ± 0.82	885.42 ± 0.84	–	–	–	–
[4], x1 = 0.3753	914.55 ± 0.73	910.2 ± 0.75	905.8 ± 0.77	901.39 ± 0.78	–	–	–	–
[4], x1 = 0.496	930.02 ± 0.68	925.62 ± 0.7	921.19 ± 0.71	916.71 ± 0.73	–	–	–	–
[4], x1 = 0.6398	948.95 ± 0.61	944.45 ± 0.63	940.02 ± 0.65	935.48 ± 0.66	–	–	–	–
[4], x1 = 0.7468	963.38 ± 0.56	958.8 ± 0.58	954.36 ± 0.6	949.8 ± 0.61	–	–	–	–
[4], x1 = 0.8284	974.53 ± 0.52	969.91 ± 0.54	965.45 ± 0.56	960.86 ± 0.58	–	–	–	–
[4], x1 = 0.9034	984.93 ± 0.49	980.26 ± 0.51	975.77 ± 0.52	971.13 ± 0.54	–	–	–	–
[4], x1 = 0.9613	993.02 ± 0.46	988.29 ± 0.48	983.78 ± 0.5	979.08 ± 0.52	–	–	–	–
[4], x1 = 1	998.44 ± 0.45	993.65 ± 0.46	989.15 ± 0.48	984.37 ± 0.5	–	–	–	–

Cc1ccc(C)cc1 [1,4-dimethylbenzene] + COc1ccccc1
x2 = 0
Conditions	mass density, 288.15 K [kg/m3]	mass density, 293.15 K [kg/m3]	mass density, 298.15 K [kg/m3]	mass density, 303.15 K [kg/m3]	refractive index, 288.15 K	refractive index, 293.15 K	refractive index, 298.15 K	refractive index, 303.15 K
[3]	–	–	–	–	1.4983 ± 0.0096	1.4958 ± 0.0096	1.4929 ± 0.0096	1.4915 ± 0.0096
[4]	865.25 ± 0.91	860.92 ± 0.93	856.62 ± 0.94	852.25 ± 0.96	–	–	–	–

c1ccccc1 [benzene] + COc1ccccc1
x2 = 0
Conditions	mass density, 288.15 K [kg/m3]	mass density, 293.15 K [kg/m3]	mass density, 298.15 K [kg/m3]	mass density, 303.15 K [kg/m3]	refractive index, 288.15 K	refractive index, 293.15 K	refractive index, 298.15 K	refractive index, 303.15 K
[3]	–	–	–	–	1.505 ± 0.0096	1.5011 ± 0.0096	1.4979 ± 0.0097	1.4849 ± 0.0099
[4]	884.11 ± 3.2	876.53 ± 3.3	873.6 ± 3.4	868.23 ± 3.5	–	–	–	–

Cc1ccc(C)cc1 [1,4-dimethylbenzene]
Conditions	mass density, 288.15 K [kg/m3]	mass density, 293.15 K [kg/m3]	mass density, 298.15 K [kg/m3]	mass density, 303.15 K [kg/m3]	refractive index, 288.15 K	refractive index, 293.15 K	refractive index, 298.15 K	refractive index, 303.15 K
[1]	–	–	–	–	1.4983 ± 0.0096	1.4958 ± 0.0096	1.4929 ± 0.0096	1.4915 ± 0.0096
[2]	865.25 ± 0.91	860.92 ± 0.93	856.62 ± 0.94	852.25 ± 0.96	–	–	–	–

COc1ccccc1 [anisole] + Cc1cc(C)cc(C)c1
x1 = 1
Conditions	mass density, 288.15 K [kg/m3]	mass density, 293.15 K [kg/m3]	mass density, 298.15 K [kg/m3]	mass density, 303.15 K [kg/m3]	refractive index, 288.15 K	refractive index, 293.15 K	refractive index, 298.15 K	refractive index, 303.15 K
[3]	–	–	–	–	1.5256 ± 0.0098	1.5169 ± 0.0097	1.5141 ± 0.0096	1.5117 ± 0.0096
[4]	998.44 ± 0.45	993.65 ± 0.46	989.15 ± 0.48	984.37 ± 0.5	–	–	–	–

c1ccccc1 [benzene]
Conditions	mass density, 288.15 K [kg/m3]	mass density, 293.15 K [kg/m3]	mass density, 298.15 K [kg/m3]	mass density, 303.15 K [kg/m3]	refractive index, 288.15 K	refractive index, 293.15 K	refractive index, 298.15 K	refractive index, 303.15 K
[1]	–	–	–	–	1.505 ± 0.0096	1.5011 ± 0.0096	1.4979 ± 0.0097	1.4849 ± 0.0099
[2]	884.11 ± 3.2	876.53 ± 3.3	873.6 ± 3.4	868.23 ± 3.5	–	–	–	–

Cc1cc(C)cc(C)c1 [1,3,5-trimethylbenzene]
Conditions	mass density, 288.15 K [kg/m3]	mass density, 293.15 K [kg/m3]	mass density, 298.15 K [kg/m3]	mass density, 303.15 K [kg/m3]	refractive index, 288.15 K	refractive index, 293.15 K	refractive index, 298.15 K	refractive index, 303.15 K
[1]	–	–	–	–	1.5045 ± 0.0097	1.4993 ± 0.0096	1.4976 ± 0.0096	1.4948 ± 0.0096
[2]	869.17 ± 0.97	865.07 ± 0.98	861.06 ± 1	856.95 ± 1	–	–	–	–

Cc1cccc(C)c1 [1,3-dimethylbenzene]
Conditions	mass density, 288.15 K [kg/m3]	mass density, 293.15 K [kg/m3]	mass density, 298.15 K [kg/m3]	mass density, 303.15 K [kg/m3]	refractive index, 288.15 K	refractive index, 293.15 K	refractive index, 298.15 K	refractive index, 303.15 K
[1]	–	–	–	–	1.4997 ± 0.0096	1.4973 ± 0.0096	1.4944 ± 0.0096	1.4925 ± 0.0096
[2]	868.32 ± 0.89	864.05 ± 0.91	859.77 ± 0.93	855.47 ± 0.95	–	–	–	–
